Source: PubChem BioAssay AID248 (DTP/NCI, 2004)
Values joined by “and” are separate entries in the source; they are usually repeats but may differ in a detail not shown here. Identical values can stand only once. Toxic doses and inconclusive results are not listed. No stated cut-off is given here; in the data, active means T/C of 150% or more; inactive means T/C below 125%. Peptide text beside a SMILES is read from it. * marks the point of attachment. ONp = O=[N+]([O-])c1ccc(O*)cc1; Cbz = O=C(OCc1ccccc1)*

Tested on: L1210 leukemia ip in BDF1 mice, survival T/C
Test: NCI In Vivo Anticancer Drug Screen. Data for tumor model L1210 Leukemia (intraperitoneal) in B6D2F1 (BDF1) mice
Details: endpoint: mean survival time, higher = longer survival
Summary of the method: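 Mice bearing the transplanted tumor received compound or vehicle. Survival of the treated group was divided by that of the vehicle-treated control group to give the ratio.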

[1] = dose: 50.0 mg/kg/injection, schedule: Q01DX009 (ip), vehicle: saline
[2] = dose: 100.0 mg/kg/injection, schedule: Q01DX009 (ip), vehicle: saline
[3] = dose: 100.0 mg/kg/injection, schedule: Q04DX003 (ip), vehicle: saline
[4] = dose: 200.0 mg/kg/injection, schedule: Q01DX009 (ip), vehicle: saline
[5] = dose: 200.0 mg/kg/injection, schedule: Q04DX003 (ip), vehicle: saline
[6] = dose: 400.0 mg/kg/injection, schedule: Q04DX003 (ip), vehicle: saline
[7] = dose: 100.0 mg/kg/injection, schedule: Q04DX003 (ip), vehicle: saline with Tween-80
[8] = dose: 200.0 mg/kg/injection, schedule: Q04DX003 (ip), vehicle: saline with Tween-80
[9] = dose: 400.0 mg/kg/injection, schedule: Q04DX003 (ip), vehicle: saline with Tween-80
[10] = dose: 50.0 mg/kg/injection, schedule: Q04DX003 (ip), vehicle: saline with Tween-80
[11] = dose: 100.0 mg/kg/injection, schedule: Q04DX002 (ip), vehicle: Klucel (hydroxypropylcellulose) (HPC)
[12] = dose: 200.0 mg/kg/injection, schedule: Q04DX002 (ip), vehicle: Klucel (hydroxypropylcellulose) (HPC)
[13] = dose: 400.0 mg/kg/injection, schedule: Q04DX002 (ip), vehicle: Klucel (hydroxypropylcellulose) (HPC)
[14] = dose: 400.0 mg/kg/injection, schedule: Q01DX009 (ip), vehicle: saline
[15] = dose: 50.0 mg/kg/injection, schedule: Q01DX001 (ip), vehicle: saline
[16] = dose: 100.0 mg/kg/injection, schedule: Q01DX001 (ip), vehicle: saline
[17] = dose: 200.0 mg/kg/injection, schedule: Q01DX001 (ip), vehicle: saline
[18] = dose: 100.0 mg/kg/injection, schedule: Q01DX009 (ip), vehicle: saline with Tween-80
[19] = dose: 200.0 mg/kg/injection, schedule: Q01DX009 (ip), vehicle: saline with Tween-80
[20] = dose: 400.0 mg/kg/injection, schedule: Q01DX009 (ip), vehicle: saline with Tween-80
[21] = dose: 400.0 mg/kg/injection, schedule: Q01DX001 (ip), vehicle: saline

Measured: T/C

CN(Cc1ccc2nc(N)[nH]c(=O)c2c1)c1ccc(C(=O)NC(CCC(=O)O)C(=O)O)cc1 (centres undefined)
inactive: dose: 50.0 mg/kg/injection, schedule: Q01DX009 (ip), vehicle: water 104 % of control | dose: 100.0 mg/kg/injection, schedule: Q01DX009 (ip), vehicle: water 113 % of control | dose: 100.0 mg/kg/injection, schedule: Q04DX003 (ip), vehicle: water 108 % of control | dose: 200.0 mg/kg/injection, schedule: Q04DX003 (ip), vehicle: water 100 % of control

O/N=c1/cc(-c2cccs2)ss1
inactive: [1] 86 % of control | [2] 86 % of control | [3] 87 % of control | [4] 98 % of control | [5] 95 % of control | [6] 95 % of control

O=C(Nc1ccc([N+](=O)[O-])cc1Cl)Oc1ccc(Cl)cc1Cc1ccccc1
inactive: [7] 88 % of control | [8] 93 % of control | [9] 102 % of control

c1cc2c3c(c1)nc(CCCc1nc4cccc5c4n1CCC5)n3CCC2
inactive: dose: 25.0 mg/kg/injection, schedule: Q04DX003 (ip), vehicle: saline with Tween-80 109 % of control | [10] 96 % of control | [7] 93 % of control and 87 % of control

NC(CCSCc1ccccc1)C(=O)O (centres undefined)
inactive: dose: 12.5 mg/kg/injection, schedule: Q04DX002 (ip), vehicle: Klucel (hydroxypropylcellulose) (HPC) 107 % of control | dose: 25.0 mg/kg/injection, schedule: Q04DX002 (ip), vehicle: Klucel (hydroxypropylcellulose) (HPC) 97 % of control | dose: 50.0 mg/kg/injection, schedule: Q04DX002 (ip), vehicle: Klucel (hydroxypropylcellulose) (HPC) 97 % of control | [11] 113 % of control | [12] 98 % of control | [13] 98 % of control

O=C(NCCO)Nc1ccccc1F
inactive: [2] 95 % of control | [3] 95 % of control | [4] 101 % of control | [5] 95 % of control | [14] 106 % of control | [6] 93 % of control

CCN(CC)c1ccc(/C=C/C=O)cc1
inactive: dose: 50.0 mg/kg/injection, schedule: Q01DX009 (ip), vehicle: gum acacia 103 % of control | dose: 100.0 mg/kg/injection, schedule: Q01DX009 (ip), vehicle: gum acacia 103 % of control | dose: 100.0 mg/kg/injection, schedule: Q04DX003 (ip), vehicle: gum acacia 93 % of control | dose: 200.0 mg/kg/injection, schedule: Q01DX009 (ip), vehicle: gum acacia 91 % of control | dose: 200.0 mg/kg/injection, schedule: Q04DX003 (ip), vehicle: gum acacia 96 % of control

COc1ccc(C(=O)/C=C/c2ccc(OC)c(Br)c2)cc1
inactive: dose: 100.0 mg/kg/injection, schedule: Q04DX003 (ip), vehicle: Klucel (hydroxypropylcellulose) (HPC) 95 % of control | dose: 200.0 mg/kg/injection, schedule: Q04DX003 (ip), vehicle: Klucel (hydroxypropylcellulose) (HPC) 95 % of control | dose: 400.0 mg/kg/injection, schedule: Q04DX003 (ip), vehicle: Klucel (hydroxypropylcellulose) (HPC) 94 % of control

O=[N+]([O-])/C=C/c1ccc([N+](=O)[O-])cc1Cl
inactive: dose: 12.5 mg/kg/injection, schedule: Q01DX009 (ip), vehicle: saline 101 % of control | dose: 25.0 mg/kg/injection, schedule: Q01DX009 (ip), vehicle: saline 103 % of control | [15] 100 % of control | [1] 108 % of control | [10] 119 % of control | [16] 93 % of control | [17] 102 % of control

O=C(CNC(=O)OCc1ccccc1)NCC(=O)Oc1ccc([N+](=O)[O-])cc1 (Cbz-Gly-Gly-ONp)
inactive: [18] 108 % of control | [7] 92 % of control | [19] 105 % of control | [8] 94 % of control | [20] 100 % of control | [9] 92 % of control

CC1(Cl)C(=O)NC(=O)NC1=O
inactive: dose: 25.0 mg/kg/injection, schedule: Q04DX003 (ip), vehicle: saline 96 % of control | dose: 50.0 mg/kg/injection, schedule: Q04DX003 (ip), vehicle: saline 96 % of control

CCOc1ccc(NC(=O)Nc2ccccc2)cc1
inactive: [18] 94 % of control | [7] 96 % of control | [19] 93 % of control | [8] 94 % of control | [20] 93 % of control | [9] 94 % of control

O=C(CCCCCCCCC(=O)Nc1cccc(C(F)(F)F)c1)Nc1cccc(C(F)(F)F)c1
inactive: dose: 100.0 mg/kg/injection, schedule: Q01DX009 (ip), vehicle: Klucel (hydroxypropylcellulose) (HPC) 101 % of control | dose: 200.0 mg/kg/injection, schedule: Q01DX009 (ip), vehicle: Klucel (hydroxypropylcellulose) (HPC) 92 % of control | dose: 400.0 mg/kg/injection, schedule: Q01DX009 (ip), vehicle: Klucel (hydroxypropylcellulose) (HPC) 95 % of control

CCNC(=O)OCC1C2CCC(O2)C1COC(=O)NCC (centres undefined)
inactive: [11] 101 % of control | [12] 98 % of control | [13] 98 % of control

CCO/N=C(/N)N=C(N)N
inactive: [16] 92 % of control | [2] 106 % of control | [3] 95 % of control | [17] 97 % of control | [4] 107 % of control | [5] 91 % of control | [21] 92 % of control | [14] 97 % of control | [6] 91 % of control

COC1COC(OC)C(OC)C1OC (centres undefined)
inactive: dose: 25.0 mg/kg/injection, schedule: Q04DX002 (ip), vehicle: saline 87 % of control | dose: 50.0 mg/kg/injection, schedule: Q04DX002 (ip), vehicle: saline 104 % of control | dose: 100.0 mg/kg/injection, schedule: Q04DX002 (ip), vehicle: saline 90 % of control

Cn1cc2c(=O)n(O)c(=O)[nH]c2n1
inactive: [15] 106 % of control | [16] 100 % of control | [17] 102 % of control | [21] 102 % of control
